“And” between values parts separate entries of the source, which are not always exact repeats. Equal entries are not always repeated.
Experiments:
T8 SCI rats = test: Respiratory function by head-out plethysmograph in conscious rats after T8 contusion SCI; assay type: in vivo, rat
Protocol: Female Sprague-Dawley rats (250–280 g and 360–390 g; Taconic, Germantown, N.Y.) were anesthetized with 4% chloral hydrate (360 mg/kg, i.p.). An incomplete spinal courd contusion injury was produced at T8 with a weight drop device (10 g×2.5 cm) as previously described (Wrathall et al., 1985). After SCI, manual expression of bladders was performed twice daily until a reflex bladder was established. Animal care also included housing the rats in pairs to reduce isolation-induced stress, maintaining ambient temperature at 22–25° C., and using highly absorbent bedding. No prophylactic antibiotics were given.
(§1) Experiments were conducted in unanesthetized, awake, spontaneously breathing rats at 24 hours prior to SCI, at 24 hours p.i. and weekly afterwards at 1,2,3, and 4 weeks p.i. (1) Acclimatization of the Animals. […] Animals were placed in the body cylinder of the plethysmograph (FIG. 1a) for 60 minutes per day for at least 5 days. […] (2) Non-Invasive Measurements of Respiratory Rate, Tidal Volume and Minute Ventilation. Non-invasive measurements of respiratory function in conscious rats were performed with a restrained head-out plethysmograph specially designed for rodents (BUXCO Electronics, Inc., Sharon, Conn.) (FIG. 1a). The plethymograph apparatus has a neck seal that prevents leakage of air from between the animal's neck and the plethymograph opening. Displacement of the thoracic wall produced by the animal's respiratory movements causes changes in the cylinder pressure, which results in air flowing across a pneumotachograph located on the wall of the cylinder. The pressure drop across the pneumotachograph is measured with a pressure transducer and is proportional to the flow. This signal is amplified and integrated into volume. From measurements of volume and flow, a computer and appropriate software provides respiratory parameters, such as respiratory rate (f), tidal volume (Vt), minute ventilation (Ve), peak inspiratory flow, peak expiratory flow, inspiratory time (Ti), expiratory time (Te), and accumulated volume. An additional opening on the wall of the box allows volume calibration by injecting and removing air from the box with a calibrated syringe.
(§2) The noise level in the laboratory was kept to a minimum in order not to startle the animals. Further, the animals were visually isolated from the investigators by means of a chamber made of an opaque material that surrounded and covered the front-end of the body plethysmograph (FIG. 1b). Baseline recordings lasted for 4 minutes. (3) Measurement of Ventilatory Response to Carbon Dioxide. For measurement of the ventilatory response to CO2, animals were exposed to air containing 7% CO2. The animals breathed from a funnel fixed in the front wall of a chamber made of an opaque material (FIG. 1b). The animals were exposed to the gas mixture containing 7% CO2 (mixed with 60% O2 and 33% N2) for 5 minutes with recording of respiratory activity for another 2 minutes (a total recording duration of 7 minutes).
(§3) The 5HT1A receptor antagonist, p-MPPI (RBI, Natick, Mass.) was also dissolved in 0.9% saline and given i.p. in a dose of 3 mg/kg (pH 7.4 and final volume of 0.5 ml). […] Vehicle solution (VEH) was 0.9% saline and also injected at i.p. (pH 7.4; volume: 0.5 ml/rat).
Baseline respiratory function was measured under room air ventilation and after the animal was stabilized inside a boy cylinder (FIGS. 1a and b) for 30 minutes at each time point prior to SCI and after injury. Immediately following the evaluation of baseline respiration, the animals were let to breathe air containing 7% CO2 for 7 minutes to monitor their ventilatory response to CO2 stimulus (Teng et al., 1998a and 1999).

[1] = rats; cited from earlier work
normal conscious rats = test: Respiratory function by head-out plethysmograph in normal conscious rats; assay type: in vivo, rat
Protocol: as §1, §2, §3

SOD1 mice = test: Respiratory function (tidal volume, respiratory rate) in SOD1 mice, model of familial ALS; assay type: in vivo, mouse
Protocol: SOD1 mice are mutant mice which provide an animal model for an inherited form of ALS which is more commonly referred to as familial ALS. […] These parameters of respiratory function were subsequently reevaluated 2 minutes after drug treatment.

child with apneusis = conditions: buspirone orally 8 mg/day; cited from earlier work
mdx mutant mice = conditions: clenbuterol orally 1.0–1.5 mg/kg body weight/day, one year, cited from earlier work
[2] = 24 hours p.i., 8-OH-DPAT 250 μg/kg i.p., time-course study, n=3
[3] = 24 hours post SCI, pre-treated with p-MPPI 3 mg/kg i.p. 20 min before, 7% CO2 at 16′ & 17′ after 8-OH-DPAT
[4] = 24 hours post SCI, pre-treated with p-MPPI 3 mg/kg i.p. 20 min before, baseline, 3 & 4 min post 8-OH-DPAT
[5] = 24 hours post SCI, pre-treated with p-MPPI 3 mg/kg i.p. 20 min before, baseline, 9 & 10 min post 8-OH-DPAT
[6] = 24 h p.i., 7% CO2 at 24 min after 8-OH-DPAT 250 μg/kg i.p.
[7] = 24 h p.i., baseline (room air), 3 & 4 min post 8-OH-DPAT 250 μg/kg i.p.
[8] = 24 h p.i., baseline (room air), 21 & 22 min post 8-OH-DPAT 250 μg/kg i.p.
[9] = 7 d p.i., 7% CO2 at 31′ & 32′ post 8-OH-DPAT 250 μg/kg i.p.
[10] = 7 d p.i., baseline (room air), 3 & 4 min post 8-OH-DPAT 250 μg/kg i.p.
[11] = 7 d p.i., baseline (room air), 21 & 22 min post 8-OH-DPAT 250 μg/kg i.p.
[12] = 7% CO2 at 31′ & 32′ after 8-OH-DPAT 250 μg/kg i.p.
[13] = baseline (room air), 3 & 4 min post 8-OH-DPAT 250 μg/kg i.p.
[14] = baseline (room air), 11 & 12 min post 8-OH-DPAT 250 μg/kg i.p.
[15] = baseline (room air), 21 & 22 min post 8-OH-DPAT 250 μg/kg i.p.
[16] = 24 hours after SCI, 7% CO2 at 15 & 16 min after buspirone 1.5 mg/kg i.p.
[17] = 24 hours after SCI, baseline (room air), 3 & 4 min post buspirone 1.5 mg/kg i.p.
[18] = 24 hours after SCI, baseline (room air), 8 & 9 min post buspirone 1.5 mg/kg i.p.
[19] = 24 hours p.i., buspirone 1.5 mg/kg i.p.
[20] = buspirone 3.0 mg/kg i.p. or s.c. (FIGS. 6 and 7)

SMILES: CCCN(CCC)C1CCc2cccc(O)c2C1 (stereo not drawn) [8-OH-DPAT, 8-hydroxy-2-(di-n-propylamino)tetralin]
- effect on SCI-induced abnormal respiratory pattern (T8 SCI rats; 24 hours after SCI, 8-OH-DPAT 250 μg/kg i.p.): promptly and successfully reversed the injury-triggered respiratory abnormalities
- duration of initial rise of f above p.i. levels (T8 SCI rats; 24 hours p.i., 8-OH-DPAT 250 μg/kg i.p.): about 20 minutes
- time for which a single dose normalized ventilatory response to breathing 7% CO2 (T8 SCI rats; [2]): more than 2 hours
- time for which improvement of baseline Ve (room air) was significant (T8 SCI rats; [2]): 1 h
- Te (expiratory time) (T8 SCI rats; [3]): 0.32 ± 0.05
- Ti (inspiratory time) (T8 SCI rats; [3]): 0.19 ± 0.02
- Tv (tidal volume) (T8 SCI rats; [3]): 1.15 ± 0.21↓ ml
- Ve (minute ventilation) (T8 SCI rats; [3]): 143.1 ± 28.1↓ ml/min
- f (respiratory rate) (T8 SCI rats; [3]): 126.8 ± 14.4 breaths/min
- Te (expiratory time) (T8 SCI rats; [4]): 0.32 ± 0.08↓
- Ti (inspiratory time) (T8 SCI rats; [4]): 0.32 ± 0.02
- Tv (tidal volume) (T8 SCI rats; [4]): 0.85 ± 0.14↓ ml
- Ve (minute ventilation) (T8 SCI rats; [4]): 82.5 ± 10.9↓ ml/min
- f (respiratory rate) (T8 SCI rats; [4]): 99.4 ± 9.1↑ breaths/min
- Te (expiratory time) (T8 SCI rats; [5]): 0.28 ± 0.02↓
- Ti (inspiratory time) (T8 SCI rats; [5]): 0.31 ± 0.02
- Tv (tidal volume) (T8 SCI rats; [5]): 0.82 ± 0.11↓ ml
- Ve (minute ventilation) (T8 SCI rats; [5]): 88.3 ± 13.3↓ ml/min
- f (respiratory rate) (T8 SCI rats; [5]): 107.5 ± 1.9↑ breaths/min
- Ti (inspiratory time) (T8 SCI rats; [6]): 0.17 ± 0.01
- Tv (tidal volume) (T8 SCI rats; [6]): 1.52 ± 0.08 mL
- Ve (minute ventilation) (T8 SCI rats; [6]): 267.5 ± 21.8 mL/min
- f (respiratory rate) (T8 SCI rats; [6]): 175.9 ± 9.7 breaths/min
- Te (expiratory time) (T8 SCI rats; [7]): 0.25 ± 0.02↓
- Ti (inspiratory time) (T8 SCI rats; [7]): 0.19 ± 0.01
- Tv (tidal volume) (T8 SCI rats; [7]): 0.96 ± 0.08 mL
- Ve (minute ventilation) (T8 SCI rats; [7]): 149.9 ± 15.6↑ ml/min
- f (respiratory rate) (T8 SCI rats; [7]): 155.5 ± 8.7↑ breaths/min
- Te (expiratory time) (T8 SCI rats; [8]): 0.47 ± 0.02
- Ti (inspiratory time) (T8 SCI rats; [8]): 0.18 ± 0.01
- Tv (tidal volume) (T8 SCI rats; [8]): 0.80 ± 0.06 mL
- Ve (minute ventilation) (T8 SCI rats; [8]): 81.3 ± 10.9 mL/min
- f (respiratory rate) (T8 SCI rats; [8]): 98.5±3.7 breaths/min and 98.5 ± 5.18 breaths/min
- effect on SCI-induced abnormal respiratory pattern (T8 SCI rats; 7 days p.i., 8-OH-DPAT 250 μg/kg i.p.): restored this abnormal pattern of breathing to normal
- Te (expiratory time) (T8 SCI rats; [9]): 0.17 ± 0.01
- Ti (inspiratory time) (T8 SCI rats; [9]): 0.16 ± 0.01
- Tv (tidal volume) (T8 SCI rats; [9]): 1.79 ± 0.35 mL
- Ve (minute ventilation) (T8 SCI rats; [9]): 327.2 ± 53.7↑ ml/min
- f (respiratory rate) (T8 SCI rats; [9]): 184.6 ± 6.6↑ breaths/min
- Te (expiratory time) (T8 SCI rats; [10]): 0.26 ± 0.03↓
- Ti (inspiratory time) (T8 SCI rats; [10]): 0.16 ± 0.01
- Tv (tidal volume) (T8 SCI rats; [10]): 1.11 ± 0.05 mL
- Ve (minute ventilation) (T8 SCI rats; [10]): 172.1 ± 17.1↑ ml/min
- f (respiratory rate) (T8 SCI rats; [10]): 155.2 ± 8.9↑ breaths/min
- Te (expiratory time) (T8 SCI rats; [11]): 0.32 ± 0.02↓
- Ti (inspiratory time) (T8 SCI rats; [11]): 0.15 ± 0.01
- Tv (tidal volume) (T8 SCI rats; [11]): 0.79 ± 0.04 mL
- Ve (minute ventilation) (T8 SCI rats; [11]): 103.0 ± 2.1↑ ml/min
- f (respiratory rate) (T8 SCI rats; [11]): 131.7 ± 7.7↑ breaths/min
- systematic half life (T1/2) [1]: ~50 min
- Te (expiratory time) (normal conscious rats; [12]): 0.23 ± 0.03
- Ti (inspiratory time) (normal conscious rats; [12]): 0.19 ± 0.01
- Tv (tidal volume) (normal conscious rats; [12]): 1.50 ± 0.14 mL
- Ve (minute ventilation) (normal conscious rats; [12]): 239.3 ± 48.9 mL/min
- f (respiratory rate) (normal conscious rats; [12]): 155.6 ± 18.5 breaths/min
- duration of increase in baseline Vt (normal conscious rats; 8-OH-DPAT 250 μg/kg i.p.): 4 min
- duration of stimulating effect on f (normal conscious rats; 8-OH-DPAT 250 μg/kg i.p., to last minute of observation): ≥ 23 min
- Te (expiratory time) (normal conscious rats; [13]): 0.25 ± 0.09↓
- Ti (inspiratory time) (normal conscious rats; [13]): 0.19 ± 0.04
- Tv (tidal volume) (normal conscious rats; [13]): 1.14 ± 0.08↑ ml
- Ve (minute ventilation) (normal conscious rats; [13]): 198.6 ± 32.9↑ ml/min
- f (respiratory rate) (normal conscious rats; [13]): 177.5 ± 36.2↑ breaths/min
- Te (expiratory time) (normal conscious rats; [14]): 0.30 ± 0.07↓
- Ti (inspiratory time) (normal conscious rats; [14]): 0.16 ± 0.02
- Tv (tidal volume) (normal conscious rats; [14]): 0.92 ± 0.05 mL
- Ve (minute ventilation) (normal conscious rats; [14]): 138.6 ± 27.6↑ ml/min
- f (respiratory rate) (normal conscious rats; [14]): 149.8 ± 26.5↑ breaths/min
- Te (expiratory time) (normal conscious rats; [15]): 0.41 ± 0.08↓
- Ti (inspiratory time) (normal conscious rats; [15]): 0.18 ± 0.02
- Tv (tidal volume) (normal conscious rats; [15]): 0.84 ± 0.02 mL
- Ve (minute ventilation) (normal conscious rats; [15]): 112.9 ± 15.2↑ ml/min
- f (respiratory rate) (normal conscious rats; [15]): 134.4 ± 21.2↑ breaths/min
- ventilatory response to 7% CO2 challenge (normal conscious rats; starting at 24 minutes after 8-OH-DPAT): did not significantly alter

SMILES: O=C1CC2(CCCC2)CC(=O)N1CCCCN1CCN(c2ncccn2)CC1 [buspirone]
- Te (expiratory time) (T8 SCI rats; [16]): 0.21 ± 0.03
- Ti (inspiratory time) (T8 SCI rats; [16]): 0.17 ± 0.01
- Tv (tidal volume) (T8 SCI rats; [16]): 1.46 ± 0.14 mL
- Ve (minute ventilation) (T8 SCI rats; [16]): 240.9 ± 44.8 mL/min
- Te (expiratory time) (T8 SCI rats; [17]): 0.27 ± 0.03↑
- Ti (inspiratory time) (T8 SCI rats; [17]): 0.19 ± 0.01
- Tv (tidal volume) (T8 SCI rats; [17]): 1.17 ± 0.13 mL
- Ve (minute ventilation) (T8 SCI rats; [17]): 171.3 ± 30.1 mL/min
- Te (expiratory time) (T8 SCI rats; [18]): 0.40 ± 0.05
- Ti (inspiratory time) (T8 SCI rats; [18]): 0.20 ± 0.03
- Ve (minute ventilation) (T8 SCI rats; [18]): 101.8 ± 11.4 mL/min
- SCI reduced Vt values after treatment (T8 SCI rats; [19]): levels indiscenible from pre-injury readings
- duration of effect on Vt (printed Bt) (T8 SCI rats; [19]): up to 9 minutes
- effect on abnormal respiratory function resulting from T8 SCI (T8 SCI rats; [19]): reversed the abnormal respiratory function
- respiratory frequency (SOD1 mice; [20]): reduces
- tidal volume (SOD1 mice; [20]): significantly increases
- respiratory function (tidal volume, respiratory rate) (SOD1 mice; buspirone 3.0 mg/kg subcutaneous, 2 minutes after treatment): significantly improved
- apneusis (child with apneusis): reverses apneusis

SMILES: CC(C)(C)NCC(O)c1cc(Cl)c(N)c(Cl)c1 (stereo not drawn) [clenbuterol]
- increase in myosin concentration of mdx diaphram (DIA) (mdx mutant mice; mdx mice): 22%
- soleus (SOL) weight and SOL muscle weight to body weight ratio (mdx mutant mice; normal control and mdx mice): significantly increase
